# Experimental data as given in patent publication US7034056B2, “Aryl and biaryl compounds having MCH modulatory activity” (Pharmacopeia Drug Discovery, inc., priority 2001, dated 2006).
# Target: T1, hMCHR (MCH receptor) (Homo sapiens, UniProt Q99705)
# T1 construct: (or internally produced); host or cells: CHO (Chinese hamster ovary) cells, membrane preparation
# Assay: MCH Assay PCOP Protocol ([125I]-MCH SPA binding to hMCHR-CHO membranes)
# Conditions: [125I]-MCH 0.5 nM, hMCHR-CHO membranes; read-out: Activity (ranges of Ki values)
# Experimental: A reaction mixture of 10 μg hMCHR-CHO overexpressing membranes (from Receptor Biology, Inc., Beltsville, Md., or internally produced) and 100 μg/well WGA-SPA beads (from Amersham Pharmacia Biotech, Inc., Piscataway, N.J.)/100 μl was prepared in MCHR assay buffer (25 mM HEPES, pH 7.4, 10 mM NaCl, 10 mM MgCl2, 5 mM MnCl2, 0.1% BSA). […] The assay plates were shaken for 5 minutes on a plate shaker, then incubated for 2 hours before cpm/well were determined in a Microbeta Trilux counter (from PerkinElmer Wallac, Inc., Gaithersburg, Md.).
# T1 sequence (Q99705 whole entry): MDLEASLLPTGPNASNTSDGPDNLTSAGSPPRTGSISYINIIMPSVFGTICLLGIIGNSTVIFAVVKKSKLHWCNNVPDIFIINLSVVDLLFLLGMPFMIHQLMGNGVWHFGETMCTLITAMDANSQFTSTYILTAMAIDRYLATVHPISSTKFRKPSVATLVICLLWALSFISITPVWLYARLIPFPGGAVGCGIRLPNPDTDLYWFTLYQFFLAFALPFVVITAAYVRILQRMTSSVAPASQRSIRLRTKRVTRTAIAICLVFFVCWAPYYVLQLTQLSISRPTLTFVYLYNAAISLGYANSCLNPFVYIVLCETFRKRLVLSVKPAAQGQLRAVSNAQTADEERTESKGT
row,Ki,Compound
1,51 to 500 nM,COc1ccc(-c2cccc(C(CCNCCCN(C)C)CNC(=O)Nc3cc(Cl)cc(Cl)c3)c2)cc1 (stereo not drawn) [Example 154]
2,51 to 500 nM,O=C(NCC(CCNC1CCCC1)c1cccc(-c2ccc(F)cc2)c1)Nc1cc(Cl)cc(Cl)c1 (stereo not drawn) [Example 155]
3,51 to 500 nM,O=C(NCC(CCNC1CCCC1)c1cccc(-c2cccc(F)c2)c1)Nc1cc(Cl)cc(Cl)c1 (stereo not drawn) [Example 156]
4,51 to 500 nM,O=C(NCC(CCNC1CCCC1)c1cccc(-c2ccc(Cl)c(Cl)c2)c1)Nc1cc(Cl)cc(Cl)c1 (stereo not drawn) [Example 157]
5,51 to 500 nM,O=C(NCC(CCNC1CCCC1)c1cccc(-c2cccc(Cl)c2)c1)Nc1cc(Cl)cc(Cl)c1 (stereo not drawn) [Example 158]
6,51 to 500 nM,O=C(NCC(CCNC1CCCC1)c1cccc(-c2ccc(F)c(Cl)c2)c1)Nc1cc(Cl)cc(Cl)c1 (stereo not drawn) [Example 159]
7,51 to 500 nM,Cc1ccc(C(CCNC2CCCC2)CN2CCN(c3cc(Cl)cc(Cl)c3)C2=O)cc1 (stereo not drawn) [Example 160]
8,501 to 2500 nM,Cc1ccc(-c2cccc(C(CCNC3CCCC3)CNC(=O)Nc3cc(Cl)cc(Cl)c3)c2)cc1 (stereo not drawn) [Example 161]
9,501 to 2500 nM,Cc1ccc(-c2cccc(C(CCNCCCN(C)C)CNC(=O)Nc3cc(Cl)cc(Cl)c3)c2)cc1 (stereo not drawn) [Example 162]
10,501 to 2500 nM,CN(C)CCCNCCC(CNC(=O)Nc1cc(Cl)cc(Cl)c1)c1cccc(-c2ccc3c(c2)OCO3)c1 (stereo not drawn) [Example 163]
11,501 to 2500 nM,COc1ccccc1-c1cccc(C(CCNC2CCCC2)CNC(=O)Nc2cc(Cl)cc(Cl)c2)c1 (stereo not drawn) [Example 164]
12,501 to 2500 nM,CN(C)CCCNCCC(CNC(=O)Nc1cc(Cl)cc(Cl)c1)c1cccc(-c2ccc(F)cc2)c1 (stereo not drawn) [Example 165]
13,501 to 2500 nM,O=C(NCC(CCNC1CCCC1)c1cccc(-c2ccccc2Cl)c1)Nc1cc(Cl)cc(Cl)c1 (stereo not drawn) [Example 166]
14,501 to 2500 nM,CN(C)CCCNCCC(CNC(=O)Nc1cc(Cl)cc(Cl)c1)c1cccc(-c2ccc(Cl)c(Cl)c2)c1 (stereo not drawn) [Example 167]
15,501 to 2500 nM,CC(=O)Nc1cccc(-c2cccc(C(CCNCCCN(C)C)CNC(=O)Nc3cc(Cl)cc(Cl)c3)c2)c1 (stereo not drawn) [Example 168]
16,501 to 2500 nM,CN(C)CCCNCCC(CNC(=O)Nc1cc(Cl)cc(Cl)c1)c1cccc(-c2cccc(C#N)c2)c1 (stereo not drawn) [Example 169]
17,501 to 2500 nM,CN(C)CCCNCCC(CNC(=O)Nc1cc(Cl)cc(Cl)c1)c1cccc(-c2ccc(F)c(Cl)c2)c1 (stereo not drawn) [Example 170]
18,501 to 2500 nM,CN(C)CCCNCCC(CNC(=O)Nc1cc(Cl)cc(Cl)c1)c1cccc(-c2ccccc2)c1 (stereo not drawn) [Example 171]
19,501 to 2500 nM,CN(C)CCCNCCC(CNC(=O)Nc1cc(Cl)cc(Cl)c1)c1cccc(-c2cccnc2)c1 (stereo not drawn) [Example 172]
20,501 to 2500 nM,CN(C)CCCNCCC(CNC(=O)Nc1cc(Cl)cc(Cl)c1)c1cccc(-c2cccc(F)c2)c1 (stereo not drawn) [Example 173]
21,501 to 2500 nM,COc1ccccc1-c1cccc(C(CCNCCCN(C)C)CNC(=O)Nc2cc(Cl)cc(Cl)c2)c1 (stereo not drawn) [Example 174]
22,501 to 2500 nM,CN(C)CCCNCCC(CNC(=O)Nc1cc(Cl)cc(Cl)c1)c1cccc(-c2cc(C(F)(F)F)cc(C(F)(F)F)c2)c1 (stereo not drawn) [Example 175]
23,501 to 2500 nM,CN(C)CCCNCCC(CNC(=O)Nc1cc(Cl)cc(Cl)c1)c1cccc(-c2ccccc2Cl)c1 (stereo not drawn) [Example 176]
24,51 to 500 nM,CCNC(=O)N1CCC(NCCC(CNC(=O)Nc2cc(Cl)cc(Cl)c2)c2ccc(Cl)cc2)C1 (stereo not drawn) [Example 177]
25,51 to 500 nM,O=C(NCC(CCN1CCC(NC(=O)C2CCC2)C1)c1ccc(Cl)cc1)Nc1cc(Cl)cc(Cl)c1 (stereo not drawn) [Example 178]
26,51 to 500 nM,CS(=O)(=O)NC1CCN(CCC(CNC(=O)Nc2cc(Cl)cc(Cl)c2)c2ccc(Cl)cc2)CC1 (stereo not drawn) [Example 179]
27,51 to 500 nM,CCNC(=O)N1CCC(NCCC(CNC(=O)Nc2cc(Cl)cc(Cl)c2)c2ccc(C)cc2)C1 (stereo not drawn) [Example 180]

row,Ki,Compound
1,51 to 500 nM,O=C(NCC(CCN1CCC(NC(=O)C2CCC2)C1)c1ccc(Cl)c(Cl)c1)Nc1cc(Cl)cc(Cl)c1 (stereo not drawn) [Example 181]
2,51 to 500 nM,CCNC(=O)N1CCC(NCCC(CNC(=O)Nc2cc(Cl)cc(Cl)c2)c2ccc(Cl)c(Cl)c2)C1 (stereo not drawn) [Example 182]
3,51 to 500 nM,O=C(NCC(CCN1CCC(NC(=O)c2cccs2)C1)c1ccc(Cl)cc1)Nc1cc(Cl)cc(Cl)c1 (stereo not drawn) [Example 183]
4,51 to 500 nM,Cc1ccc(C(CCN2CCC(NC(=O)C3CCC3)C2)CNC(=O)Nc2cc(Cl)cc(Cl)c2)cc1 (stereo not drawn) [Example 184]
5,51 to 500 nM,O=C(NCC(CCN1CCC(NC(=O)C2CCC2)CC1)c1ccc(Cl)cc1)Nc1cc(Cl)cc(Cl)c1 (stereo not drawn) [Example 185]
6,51 to 500 nM,CC(=O)NC1CCN(CCC(CNC(=O)Nc2cc(Cl)cc(Cl)c2)c2ccc(Cl)cc2)C1 (stereo not drawn) [Example 186]
7,51 to 500 nM,Cc1ccc(C(CCN2CCC(NC(=O)C3CCC3)CC2)CNC(=O)Nc2cc(Cl)cc(Cl)c2)cc1 (stereo not drawn) [Example 187]
8,51 to 500 nM,COCC(=O)NC1CCN(CCC(CNC(=O)Nc2cc(Cl)cc(Cl)c2)c2ccc(Cl)c(Cl)c2)C1 (stereo not drawn) [Example 188]
9,51 to 500 nM,O=C(NCC(CCN1CCC(NC(=O)c2cccs2)C1)c1ccc(Cl)c(Cl)c1)Nc1cc(Cl)cc(Cl)c1 (stereo not drawn) [Example 190]
10,51 to 500 nM,O=C(NCC(CCN1CCC(NC(=O)C2CCC2)CC1)c1ccc(Cl)c(Cl)c1)Nc1cc(Cl)cc(Cl)c1 (stereo not drawn) [Example 191]
11,51 to 500 nM,COCC(=O)NC1CCN(CCC(CNC(=O)Nc2cc(Cl)cc(Cl)c2)c2ccc(Cl)cc2)CC1 (stereo not drawn) [Example 192]
12,51 to 500 nM,O=C(NCC(CCN1CCC(NC(=O)c2ccno2)C1)c1ccc(Cl)cc1)Nc1cc(Cl)cc(Cl)c1 (stereo not drawn) [Example 193]
13,51 to 500 nM,COCC(=O)NC1CCN(CCC(CNC(=O)Nc2cc(Cl)cc(Cl)c2)c2ccc(Cl)cc2)C1 (stereo not drawn) [Example 194]
14,51 to 500 nM,COCC(=O)NC1CCN(CCC(CNC(=O)Nc2cc(Cl)cc(Cl)c2)c2ccc(Cl)c(Cl)c2)CC1 (stereo not drawn) [Example 195]
15,51 to 500 nM,CC(=O)NC1CCN(CCC(CNC(=O)Nc2cc(Cl)cc(Cl)c2)c2ccc(Cl)cc2)CC1 (stereo not drawn) [Example 196]
16,51 to 500 nM,COc1cscc1C(=O)NC1CCN(CCC(CNC(=O)Nc2cc(Cl)cc(Cl)c2)c2ccc(Cl)cc2)C1 (stereo not drawn) [Example 197]
17,51 to 500 nM,Cc1ccc(C(CCN2CCC(NC(=O)c3cccs3)CC2)CNC(=O)Nc2cc(Cl)cc(Cl)c2)cc1 (stereo not drawn) [Example 198]
18,51 to 500 nM,CC(=O)NC1CCN(CCC(CNC(=O)Nc2cc(Cl)cc(Cl)c2)c2ccc(Cl)c(Cl)c2)CC1 (stereo not drawn) [Example 199]
19,501 to 2500 nM,COc1cscc1C(=O)NC1CCN(CCC(CNC(=O)Nc2cc(Cl)cc(Cl)c2)c2ccc(Cl)c(Cl)c2)C1 (stereo not drawn) [Example 200]
20,501 to 2500 nM,COc1cscc1C(=O)NC1CCN(CCC(CNC(=O)Nc2cc(Cl)cc(Cl)c2)c2ccc(Cl)cc2)CC1 (stereo not drawn) [Example 201]
21,501 to 2500 nM,Cc1ccc(C(CCN2CCC(NC(=O)c3ccno3)C2)CNC(=O)Nc2cc(Cl)cc(Cl)c2)cc1 (stereo not drawn) [Example 202]
22,501 to 2500 nM,COc1cscc1C(=O)NC1CCN(CCC(CNC(=O)Nc2cc(Cl)cc(Cl)c2)c2ccc(C)cc2)CC1 (stereo not drawn) [Example 203]
23,501 to 2500 nM,CS(=O)(=O)NC1CCN(CCC(CNC(=O)Nc2cc(Cl)cc(Cl)c2)c2ccc(Cl)cc2)C1 (stereo not drawn) [Example 204]
24,501 to 2500 nM,Cc1ccc(C(CCN2CCC(NC(=O)c3ccno3)CC2)CNC(=O)Nc2cc(Cl)cc(Cl)c2)cc1 (stereo not drawn) [Example 205]
25,501 to 2500 nM,CC(=O)NC1CCN(CCC(CNC(=O)Nc2cc(Cl)cc(Cl)c2)c2ccc(C)cc2)CC1 (stereo not drawn) [Example 206]
26,501 to 2500 nM,Cc1ccc(C(CCN2CCC(NS(C)(=O)=O)C2)CNC(=O)Nc2cc(Cl)cc(Cl)c2)cc1 (stereo not drawn) [Example 207]
27,501 to 2500 nM,COCC(=O)NC1CCN(CCC(CNC(=O)Nc2cc(Cl)cc(Cl)c2)c2ccc(C)cc2)C1 (stereo not drawn) [Example 208]
